Source: PMC5218480 (PLoS ONE, 2017)

Tested on: MV-4-11 cells
Experiment: Gene expression microarray analysis (Affymetrix PrimeView) and GSEA
Assay type: cell-based, human
Design: RFU PODN (11730768_x_at) / Fold change /veh PODN (11730768_x_at) / RFU LINC00158 (11744669_a_at) / Fold change /veh LINC00158 (11744669_a_at) / RFU DUSP10 (11751237_a_at) / Fold change /veh DUSP10 (11751237_a_at) / RFU ID3 (11757404_x_at) / Fold change /veh ID3 (11757404_x_at) / RFU PLEKHG5 (11737974_s_at) / Fold change /veh PLEKHG5 (11737974_s_at) / RFU LRRC4B (11730491_at) / Fold change /veh LRRC4B (11730491_at) / RFU GIMAP4 (11747438_a_at) / Fold change /veh GIMAP4 (11747438_a_at) / RFU KRT8 (11758183_x_at) / Fold change /veh KRT8 (11758183_x_at) / RFU CNN1 (11734310_a_at) / Fold change /veh CNN1 (11734310_a_at) / RFU VPS37D (11726825_at) / Fold change /veh VPS37D (11726825_at) / RFU C10orf10 (11716522_x_at) / Fold change /veh C10orf10 (11716522_x_at) / RFU KIR2DL2 /// KIR2DL4 /// KIR2DL5A /// KIR2DL5B /// KIR2DS1 /// KIR2DS2 /// KIR2DS3 /// KIR2DS4 /// KIR3DL3 /// KIR3DL3 /// KIR3DS1 (11738374_at) / Fold change /veh KIR2DL2 /// KIR2DL4 /// KIR2DL5A /// KIR2DL5B /// KIR2DS1 /// KIR2DS2 /// KIR2DS3 /// KIR2DS4 /// KIR3DL3 /// KIR3DL3 /// KIR3DS1 (11738374_at) / RFU C1QL1 (11718748_at) / Fold change /veh C1QL1 (11718748_at) / RFU TMPRSS4 (11747572_a_at) / Fold change /veh TMPRSS4 (11747572_a_at) / RFU HAMP (11756126_x_at) / Fold change /veh HAMP (11756126_x_at) / RFU RNFT2 (11725882_a_at) / Fold change /veh RNFT2 (11725882_a_at) / RFU NR4A2 (11747474_a_at) / Fold change /veh NR4A2 (11747474_a_at) / RFU ABCC12 (11746883_a_at) / Fold change /veh ABCC12 (11746883_a_at) / RFU TMEM136 (11760407_x_at) / Fold change /veh TMEM136 (11760407_x_at) / RFU CLDN22 /// WWC2 (11732394_at) / Fold change /veh CLDN22 /// WWC2 (11732394_at) / RFU HLA-DPB1 (11760878_x_at) / Fold change /veh HLA-DPB1 (11760878_x_at) / RFU SPINT1 (11716480_a_at) / Fold change /veh SPINT1 (11716480_a_at) / RFU GAP43 (11754022_s_at) / Fold change /veh GAP43 (11754022_s_at) / RFU A4GNT (11735810_at) / Fold change /veh A4GNT (11735810_at) / RFU PRB3 (11715151_x_at) / Fold change /veh PRB3 (11715151_x_at) / RFU TUBB4B (11761932_at) / Fold change /veh TUBB4B (11761932_at) / RFU CAPN14 (11732068_a_at) / Fold change /veh CAPN14 (11732068_a_at) / RFU TMCC2 (11721928_a_at) / Fold change /veh TMCC2 (11721928_a_at) / RFU IRGQ (11745062_a_at) / Fold change /veh IRGQ (11745062_a_at) / RFU FAM174B (11720279_a_at) / Fold change /veh FAM174B (11720279_a_at) / RFU TMPRSS4 (11748680_a_at) / Fold change /veh TMPRSS4 (11748680_a_at) / RFU FAM212B (11763350_a_at) / Fold change /veh FAM212B (11763350_a_at) / RFU PLEKHG5 (11743358_a_at) / Fold change /veh PLEKHG5 (11743358_a_at) / RFU ZSCAN30 (11745921_a_at) / Fold change /veh ZSCAN30 (11745921_a_at) / RFU CMKLR1 (11741424_a_at) / Fold change /veh CMKLR1 (11741424_a_at) / RFU LOC101060620 /// MAPK8IP1 (11723275_at) / Fold change /veh LOC101060620 /// MAPK8IP1 (11723275_at) / RFU SPTSSB (11747773_x_at) / Fold change /veh SPTSSB (11747773_x_at) / RFU PRSS12 (11739890_at) / Fold change /veh PRSS12 (11739890_at) / RFU BIN1 (11741810_x_at) / Fold change /veh BIN1 (11741810_x_at) / RFU WNT11 (11732464_a_at) / Fold change /veh WNT11 (11732464_a_at) / RFU C10orf10 (11716521_a_at) / Fold change /veh C10orf10 (11716521_a_at) / RFU C5orf56 (11738089_at) / Fold change /veh C5orf56 (11738089_at) / RFU CYB561 (11721691_x_at) / Fold change /veh CYB561 (11721691_x_at) / RFU ANKRD19P (11752326_a_at) / Fold change /veh ANKRD19P (11752326_a_at) / RFU OR2T12 /// OR2T33 /// OR2T8 (11738714_s_at) / Fold change /veh OR2T12 /// OR2T33 /// OR2T8 (11738714_s_at) / RFU VCAN (11748164_a_at) / Fold change /veh VCAN (11748164_a_at) / RFU JSRP1 (11732532_at) / Fold change /veh JSRP1 (11732532_at) / RFU KRTAP10-11 (11738290_x_at) / Fold change /veh KRTAP10-11 (11738290_x_at) / RFU MYO3A (11730013_a_at) / Fold change /veh MYO3A (11730013_a_at) / RFU EBF3 (11725865_a_at) / Fold change /veh EBF3 (11725865_a_at) / RFU CAMK2N1 (11719241_x_at) / Fold change /veh CAMK2N1 (11719241_x_at) / RFU C5orf56 (11738088_a_at) / Fold change /veh C5orf56 (11738088_a_at) / RFU OLFML3 (11715873_a_at) / Fold change /veh OLFML3 (11715873_a_at) / RFU LOC100653217 /// NTM (11731650_a_at) / Fold change /veh LOC100653217 /// NTM (11731650_a_at) / RFU MAPK11 (11762145_a_at) / Fold change /veh MAPK11 (11762145_a_at) / RFU FIZ1 (11724087_x_at) / Fold change /veh FIZ1 (11724087_x_at) / RFU OASL (11726364_x_at) / Fold change /veh OASL (11726364_x_at) / RFU SOX15 (11748057_x_at) / Fold change /veh SOX15 (11748057_x_at) / RFU CD79A (11719716_a_at) / Fold change /veh CD79A (11719716_a_at) / RFU HIST1H1D (11736915_at) / Fold change /veh HIST1H1D (11736915_at) / RFU CASKIN2 (11723855_a_at) / Fold change /veh CASKIN2 (11723855_a_at) / RFU LOC730098 (11760151_x_at) / Fold change /veh LOC730098 (11760151_x_at) / RFU OR4N2 (11742367_at) / Fold change /veh OR4N2 (11742367_at) / RFU PRRT2 (11749266_a_at) / Fold change /veh PRRT2 (11749266_a_at) / RFU SNX32 (11753110_a_at) / Fold change /veh SNX32 (11753110_a_at) / RFU CDHR5 (11726645_a_at) / Fold change /veh CDHR5 (11726645_a_at) / RFU RCAN1 (11760418_a_at) / Fold change /veh RCAN1 (11760418_a_at) / RFU FAM167A (11723789_a_at) / Fold change /veh FAM167A (11723789_a_at) / RFU FAM26E (11764081_at) / Fold change /veh FAM26E (11764081_at) / RFU ISYNA1 (11749810_s_at) / Fold change /veh ISYNA1 (11749810_s_at) / RFU ACY1 (11761880_at) / Fold change /veh ACY1 (11761880_at) / RFU 11764098_at / Fold change /veh 11764098_at / RFU SAMD14 (11745864_x_at) / Fold change /veh SAMD14 (11745864_x_at) / RFU NPB (11741838_a_at) / Fold change /veh NPB (11741838_a_at) / RFU TMPRSS6 (11731388_a_at) / Fold change /veh TMPRSS6 (11731388_a_at) / RFU KRTAP10-2 (11738614_at) / Fold change /veh KRTAP10-2 (11738614_at) / RFU ARHGAP8 /// PRR5-ARHGAP8 (11727945_x_at) / Fold change /veh ARHGAP8 /// PRR5-ARHGAP8 (11727945_x_at) / RFU KRTAP5-7 /// NADSYN1 (11734609_at) / Fold change /veh KRTAP5-7 /// NADSYN1 (11734609_at) / RFU RASL12 (11751679_a_at) / Fold change /veh RASL12 (11751679_a_at) / RFU CDKN2B (11736163_a_at) / Fold change /veh CDKN2B (11736163_a_at) / RFU PRF1 (11729649_at) / Fold change /veh PRF1 (11729649_at) / RFU, ZNF638 /// ZNF638-IT1 / Fold change vs veh, ZNF638 /// ZNF638-IT1 / RFU, PANK3 / Fold change vs veh, PANK3 / RFU, SH3YL1 / Fold change vs veh, SH3YL1 / RFU, ZEB2 / Fold change vs veh, ZEB2 / RFU, NRIP1 / Fold change vs veh, NRIP1 / RFU, PTTG1IP / Fold change vs veh, PTTG1IP / RFU, CAPN2 / Fold change vs veh, CAPN2 / RFU, MED14 / Fold change vs veh, MED14 / RFU, SNORA58 / Fold change vs veh, SNORA58 / RFU, C1orf63 / Fold change vs veh, C1orf63 / RFU, LRRFIP1 / Fold change vs veh, LRRFIP1 / RFU, NDUFAF7 / Fold change vs veh, NDUFAF7 / RFU, SLC12A2 / Fold change vs veh, SLC12A2 / RFU, IBTK / Fold change vs veh, IBTK / RFU, ESF1 / Fold change vs veh, ESF1 / Fold change vs veh, TMEM50B / RFU, TAOK1 / Fold change vs veh, TAOK1 / RFU, ACBD3 / Fold change vs veh, ACBD3 / RFU, TMA16 / Fold change vs veh, TMA16 / RFU, RWDD3 / Fold change vs veh, RWDD3 / RFU, BCAT1 / Fold change vs veh, BCAT1 / RFU, EDEM3 / Fold change vs veh, EDEM3 / RFU, TMEM33 / Fold change vs veh, TMEM33 / RFU, WDR75 / Fold change vs veh, WDR75 / RFU, AHCTF1 / Fold change vs veh, AHCTF1 / RFU, TFRC / Fold change vs veh, TFRC / RFU, ZDHHC17 / Fold change vs veh, ZDHHC17 / RFU, NOM1 / Fold change vs veh, NOM1 / RFU, ARL8B / Fold change vs veh, ARL8B / RFU, ZBTB11 / Fold change vs veh, ZBTB11 / RFU, TAMM41 / Fold change vs veh, TAMM41 / RFU, KIAA1704 /// LOC100996395 / Fold change vs veh, KIAA1704 /// LOC100996395 / RFU, ING1 / Fold change vs veh, ING1 / RFU, TRMT61B / Fold change vs veh, TRMT61B / RFU, FUBP3 / Fold change vs veh, FUBP3 / RFU, TP53 / Fold change vs veh, TP53 / RFU, TNKS2 / Fold change vs veh, TNKS2 / RFU, ZFP14 / Fold change vs veh, ZFP14 / RFU, ACTR2 / Fold change vs veh, ACTR2 / RFU, PPP3R1 / Fold change vs veh, PPP3R1 / RFU, PIK3R1 / Fold change vs veh, PIK3R1 / RFU, HNRNPA1 / Fold change vs veh, HNRNPA1 / RFU, RNF170 / Fold change vs veh, RNF170 / RFU, ZNF28 / Fold change vs veh, ZNF28 / RFU, RNGTT / Fold change vs veh, RNGTT / RFU, OGT / Fold change vs veh, OGT / RFU, BRD1 / Fold change vs veh, BRD1 / RFU, MARS / Fold change vs veh, MARS / RFU, ZNF655 / Fold change vs veh, ZNF655 / RFU, FAHD1 / Fold change vs veh, FAHD1 / RFU, BDP1 / Fold change vs veh, BDP1 / RFU, LRRCC1 / Fold change vs veh, LRRCC1 / RFU, ARID1A / Fold change vs veh, ARID1A / RFU, ZNF146 / Fold change vs veh, ZNF146 / RFU, ZNF330 / Fold change vs veh, ZNF330 / RFU, GPN3 / Fold change vs veh, GPN3 / RFU, C9orf123 / Fold change vs veh, C9orf123 / RFU, N4BP2L2 / Fold change vs veh, N4BP2L2 / RFU, ARFIP1 / Fold change vs veh, ARFIP1 / RFU, FAM179B / Fold change vs veh, FAM179B / RFU, BCL10 / Fold change vs veh, BCL10 / RFU, UHRF1BP1L / Fold change vs veh, UHRF1BP1L / RFU, BET1 / Fold change vs veh, BET1 / RFU, CNOT2 / Fold change vs veh, CNOT2 / RFU, ZNF268 / Fold change vs veh, ZNF268 / Fold change vs veh, ZNF507 / RFU, DGCR2 / Fold change vs veh, DGCR2 / RFU, WDSUB1 / Fold change vs veh, WDSUB1 / Fold change vs veh, HSP90B1 /// MIR3652 / RFU, ADSS / Fold change vs veh, ADSS / RFU, GK / Fold change vs veh, GK / RFU, ZNF148 / Fold change vs veh, ZNF148 / RFU, TAF9 / Fold change vs veh, TAF9 / RFU, SLC1A5 / Fold change vs veh, SLC1A5 / RFU, SLMO2 / Fold change vs veh, SLMO2 / RFU, ABCC4 / Fold change vs veh, ABCC4 / RFU, LOC101060439 /// RAP1B / Fold change vs veh, LOC101060439 /// RAP1B / RFU, RFX7 / Fold change vs veh, RFX7 / RFU, GTPBP10 / Fold change vs veh, GTPBP10 / RFU, CNEP1R1 / Fold change vs veh, CNEP1R1 / RFU, BIVM-ERCC5 /// ERCC5 / Fold change vs veh, BIVM-ERCC5 /// ERCC5 / RFU, ILF3 / Fold change vs veh, ILF3 / RFU 11762660_at / Fold change /veh 11762660_at / RFU VCAN (11757783_s_at) / Fold change /veh VCAN (11757783_s_at) / RFU DDX43 (11728927_at) / Fold change /veh DDX43 (11728927_at) / RFU KRT8 (11758188_x_at) / Fold change /veh KRT8 (11758188_x_at) / RFU NKD1 (11759106_at) / Fold change /veh NKD1 (11759106_at) / RFU SRD5A1 (11742802_a_at) / Fold change /veh SRD5A1 (11742802_a_at) / RFU TPSAB1 /// TPSB2 (11721975_s_at) / Fold change /veh TPSAB1 /// TPSB2 (11721975_s_at) / RFU GSTM3 (11746129_a_at) / Fold change /veh GSTM3 (11746129_a_at) / RFU IL23R (11737362_x_at) / Fold change /veh IL23R (11737362_x_at) / RFU TMEM51 (11727254_a_at) / Fold change /veh TMEM51 (11727254_a_at) / RFU PIWIL2 (11732686_x_at) / Fold change /veh PIWIL2 (11732686_x_at) / RFU ORM1 (11744905_x_at) / Fold change /veh ORM1 (11744905_x_at) / RFU CCDC152 (11743942_at) / Fold change /veh CCDC152 (11743942_at) / RFU ECM1 (11717891_a_at) / Fold change /veh ECM1 (11717891_a_at) / RFU IL23R (11748794_a_at) / Fold change /veh IL23R (11748794_a_at) / RFU TNFAIP8L3 (11732012_x_at) / Fold change /veh TNFAIP8L3 (11732012_x_at) / RFU MBOAT4 (11741988_at) / Fold change /veh MBOAT4 (11741988_at) / RFU 11764193_at / Fold change /veh 11764193_at / RFU TMEM53 (11763286_at) / Fold change /veh TMEM53 (11763286_at) / RFU MAGEB2 (11727129_at) / Fold change /veh MAGEB2 (11727129_at) / RFU TMEM200A (11744735_a_at) / Fold change /veh TMEM200A (11744735_a_at) / RFU CCDC152 (11751479_a_at) / Fold change /veh CCDC152 (11751479_a_at) / RFU FAM211A (11726209_a_at) / Fold change /veh FAM211A (11726209_a_at) / RFU RGS16 (11746705_a_at) / Fold change /veh RGS16 (11746705_a_at) / RFU VCAN (11755009_s_at) / Fold change /veh VCAN (11755009_s_at) / RFU RHOB (11743442_s_at) / Fold change /veh RHOB (11743442_s_at) / RFU RGS16 (11720943_a_at) / Fold change /veh RGS16 (11720943_a_at) / RFU RGS16 (11720944_at) / Fold change /veh RGS16 (11720944_at) / RFU, VPS4B / Fold change vs veh, VPS4B / RFU, CREB1 / Fold change vs veh, CREB1 / RFU, DNAJC13 / Fold change vs veh, DNAJC13 / RFU, GNAQ / Fold change vs veh, GNAQ / RFU, CDK5R1 / Fold change vs veh, CDK5R1 / RFU, ZRANB3 / Fold change vs veh, ZRANB3 / RFU, CUL4A / Fold change vs veh, CUL4A / RFU, CCNY / Fold change vs veh, CCNY / RFU, UFL1 / Fold change vs veh, UFL1 / RFU, COG3 / Fold change vs veh, COG3 / RFU, DIAPH2 / Fold change vs veh, DIAPH2 / RFU, SKA2 / Fold change vs veh, SKA2 / RFU, AFF3 / Fold change vs veh, AFF3 / RFU, LMF1 / Fold change vs veh, LMF1 / RFU, IPO11 / Fold change vs veh, IPO11 / RFU, DFFB / Fold change vs veh, DFFB / RFU, FOXP1 / Fold change vs veh, FOXP1 / RFU, CARD8 / Fold change vs veh, CARD8 / RFU, STRN3 / Fold change vs veh, STRN3 / RFU, ADK / Fold change vs veh, ADK / RFU, RASSF2 / Fold change vs veh, RASSF2 / RFU, WIPF1 / Fold change vs veh, WIPF1 / RFU, LARP1B / Fold change vs veh, LARP1B / RFU, RASA1 / Fold change vs veh, RASA1 / RFU, RB1 / Fold change vs veh, RB1 / RFU, PPFIA1 / Fold change vs veh, PPFIA1 / RFU, MAT2A / Fold change vs veh, MAT2A / RFU, CCT5 / Fold change vs veh, CCT5 / RFU, WDR92 / Fold change vs veh, WDR92 / RFU, CUX1 / Fold change vs veh, CUX1 / RFU, TTC7A / Fold change vs veh, TTC7A / RFU, TMEM135 / Fold change vs veh, TMEM135 / RFU, DEPTOR / Fold change vs veh, DEPTOR / RFU, CPM / Fold change vs veh, CPM / RFU, DNAJB6 / Fold change vs veh, DNAJB6 / RFU, CACNA2D3 / Fold change vs veh, CACNA2D3 / RFU, DTX4 / Fold change vs veh, DTX4 / RFU, TFCP2 / Fold change vs veh, TFCP2 / RFU, GMCL1 /// GMCL1P1 / Fold change vs veh, GMCL1 /// GMCL1P1 / RFU, AEBP2 / Fold change vs veh, AEBP2 / RFU, SNHG1 /// SNORD22 /// SNORD25 /// SNORD26 /// SNORD27 /// SNORD28 /// SNORD29 /// SNORD31 / Fold change vs veh, SNHG1 /// SNORD22 /// SNORD25 /// SNORD26 /// SNORD27 /// SNORD28 /// SNORD29 /// SNORD31 / Fold change (Aza/veh), C12orf56 (ProbeSet 11735607_a_at) / Fold change (ACY-1035/veh), C12orf56 (ProbeSet 11735607_a_at) / Fold change (Aza/veh), FGFR1OP (ProbeSet 11751329_s_at) / Fold change (ACY-1035/veh), FGFR1OP (ProbeSet 11751329_s_at) / Fold change (Aza/veh), VPS36 (ProbeSet 11739960_a_at) / Fold change (ACY-1035/veh), VPS36 (ProbeSet 11739960_a_at) / RFU SYPL1 (11715823_x_at) / Fold change /veh SYPL1 (11715823_x_at) / RFU IGFBP7 (11715501_s_at) / Fold change /veh IGFBP7 (11715501_s_at) / RFU REEP3 (11722064_at) / Fold change /veh REEP3 (11722064_at) / RFU IGLL1 (11728026_x_at) / Fold change /veh IGLL1 (11728026_x_at): dose or concentration left out as unconfirmed
Settings: MV-4-11 cells, 48 hours

Nc1ccc(-c2cccs2)cc1NC(=O)c1ccc2c(c1)cc(C1CC1)n2CCN1CCOCC1 [ACY-1035]
Fold change /veh LOC730098 (11760151_x_at): 1.00
